Data published in patent EP3959993B1, “METHOD FOR SOLVENT FREE PRODUCTION OF AROMA CONCENTRATES” (Symrise AG, priority 2020, dated 2022).

Assays:
[1] = Influence of the amount of NaCl on the distribution between oil phase and water phase (Example 5); type: physicochemical
[2] = Second oil phase obtained by adding NaCl to the water phase (Example 4); type: physicochemical; settings: after separating oil phases I and II
Description: Cross linked polystyrene was used as adsorbent material. The volume flux for loading the adsorbent was 300 ml/min.
The adsorbent was heated to 150 °C, the temperature of the applied water steam was 160 °C.
The water steam flux was 10 g/min and was applied for 100 min.
The oil and water phases were separated.
A second oil phase was separated and was collected.

Row | Compound | Distribution in [%] between oil phase and water phase after condensation: Oil phase ([1]; NaCl 0%) [%] | Distribution in [%] between oil phase and water phase after condensation: Water phase ([1]; NaCl 0%) [%] | Distribution in [%] between oil phase and water phase after condensation: Oil phase ([1]; NaCl 27.8 %) [%] | Distribution in [%] between oil phase and water phase after condensation: Water phase ([1]; NaCl 27.8 %) [%] | Distribution in [%] between oil phase and water phase after condensation: Oil phase ([1]; NaCl 41.67%) [%] | Distribution in [%] between oil phase and water phase after condensation: Water phase ([1]; NaCl 41.67%) [%] | Distribution in [%] between oil phase and water phase after condensation: Oil phase ([1]; NaCl 55.56 %) [%] | Distribution in [%] between oil phase and water phase after condensation: Water phase ([1]; NaCl 55.56 %) [%] | Distribution in [%] between oil phase and water phase after condensation: Oil phase ([1]; NaCl 69.44 %) [%] | Distribution in [%] between oil phase and water phase after condensation: Water phase ([1]; NaCl 69.44 %) [%] | Distribution in [%] between oil phase and water phase after condensation: Oil phase ([1]; NaCl 83.33 %) [%] | Distribution in [%] between oil phase and water phase after condensation: Water phase ([1]; NaCl 83.33 %) [%] | Loss in the water phase [2]
1 | CCOC(=O)CC [ethyl propionate] | 0 | 100 | 0 | 100 | 0 | 100 | 0 | 100 | 0 | 100 | 0 | 100 | –
2 | 2-methyl propanol | 17.1 | 82.9 | 29.7 | 70.3 | 41 | 59 | 42.8 | 57.2 | 45.9 | 54.1 | 50.2 | 49.8 | 49,8%
3 | CCCCCC=O [hexanal] | 100 | 0 | 100 | 0 | 100 | 0 | 100 | 0 | 100 | 0 | 100 | 0 | 0,0%
4 | CCCCCCOC(C)=O [hexyl acetate] | 93.4 | 6.6 | 99.4 | 0.6 | 100 | 0 | 100 | 0 | 100 | 0 | 100 | 0 | 0,0%
5 | CC/C=C\CCOC(C)=O [cis-3-hexenyl acetate] | 100 | 0 | 100 | 0 | 100 | 0 | 100 | 0 | 100 | 0 | 100 | 0 | 0,0%
6 | CCCC(=O)OCC [ethyl butyrate] | 49.4 | 50.6 | 85.1 | 14.9 | 92.9 | 7.1 | 95.4 | 4.6 | 97.7 | 2.3 | 98.7 | 1.3 | 1,3%
